Source: patent US20060121449A1, “Method for selection of compounds which inhibit clonal cell growth and use thereof” (priority 2002, published 2006)
“Also recorded” adds a separate entry of the source.

How the values were obtained:
[1] = system: polyoma virus transformed BHK21/c13 cells, line S100T1; assay: Collocation inhibition test: clonal growth in sparsely and densely seeded areas of a cell density gradient of S100T1 cells in soft agar (Exp 13, 17, 19-26); settings: for Significance: Exp 17 day 14;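 as to Clonal growth, H high density area of cell gradient, High: grades rise with clonal growth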;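 as to Clonal growth, H high density area of cell gradient, Low: grades rise with clonal growth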;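 as to Clonal growth, H high density area of cell gradient, Medium: grades rise with clonal growth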;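 as to Clonal growth, L low density area of cell gradient, High: grades rise with clonal growth and minus or plus-minus means none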;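 as to Clonal growth, L low density area of cell gradient, Low: grades rise with clonal growth and minus or plus-minus means none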;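 as to Clonal growth, L low density area of cell gradient, Medium: grades rise with clonal growth and minus or plus-minus means none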;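 as to all read-outs here: soft agar cultures in 24-well plates with a cell density gradient in the top layer, compounds applied from DMSO stocks, clonal growth scored in sparse versus dense areas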
[2] = system: polyoma virus transformed BHK21/c13 cells, clone S100T1; assay: Clonal test: clonal growth of S100T1 cells in soft agar (Exp 2, 4, 6, 15, 16); assay type: cell-based, hamster
[3] = preliminary results, Exp 13-18, 21-26, high concentration
[4] = preliminary results, Exp 13-18, 21-26, low concentration
[5] = preliminary results, Exp 13-18, 21-26, medium concentration
[6] = Exp 15, 32000 S100T1 cells/well

## COc1cc([C@@H]2c3cc4c(cc3[C@H](O)[C@H]3COC(=O)[C@H]23)OCO4)cc(OC)c1OC [Podophyllotoxin]
[1]; Exp 17, 144000 S100T1 cells/well
  Effect on growth in high- and low-density areas: growth inhibition of both high and low-density areas; also recorded: significant inhibition of growth in crowded areas
[1]; Exp 17, a: close to densely seeded cell areas, High: Colchicine 1, Podophyllotoxin 3, Etoposide 200, 4-OH—OPB 6.7 μM in wells, DMSO 29.2 μl
  Clonal growth, results read on the day 14: (+)
[1]; Exp 17, a: close to densely seeded cell areas, Low: Colchicine 0.1, Podophyllotoxin 0.3, Etoposide 20, 4-OH—OPB 0.67 μM in wells, DMSO 1.16 μl
  Clonal growth, results read on the day 14: (+
[1]; Exp 17, a: close to densely seeded cell areas, Medium: Colchicine 0.3, Podophyllotoxin 0.9, Etoposide 60, 4-OH—OPB 2 μM in wells, DMSO 6.8 μl
  Clonal growth, results read on the day 14: (+
[1]; Exp 17, b: sparsely seeded areas in the same agar culture, High: Colchicine 1, Podophyllotoxin 3, Etoposide 200, 4-OH—OPB 6.7 μM in wells, DMSO 29.2 μl
  Clonal growth, results read on the day 14: (+)
[1]; Exp 17, b: sparsely seeded areas in the same agar culture, Low: Colchicine 0.1, Podophyllotoxin 0.3, Etoposide 20, 4-OH—OPB 0.67 μM in wells, DMSO 1.16 μl
  Clonal growth, results read on the day 14: +
[1]; Exp 17, b: sparsely seeded areas in the same agar culture, Medium: Colchicine 0.3, Podophyllotoxin 0.9, Etoposide 60, 4-OH—OPB 2 μM in wells, DMSO 6.8 μl
  Clonal growth, results read on the day 14: +
[1]; Exp 17, compared with 4-OH-OPB
  Clones in sparsely seeded locations of the agar: allow the growth of a few small clones in sparsely seeded locations of the agar; also recorded: to allow the growth of a few small clones in sparsely
[1]; a: close to densely seeded cell areas, High: Colchicine 1, Podophyllotoxin 3, Etoposide 200, 4-OH—OPB 6.7 μM in wells, DMSO 29.2 μl
  Significance: Possible
[1]; a: close to densely seeded cell areas, Low: Colchicine 0.1, Podophyllotoxin 0.3, Etoposide 20, 4-OH—OPB 0.67 μM in wells, DMSO 1.16 μl
  Significance: Doubtful
[1]; a: close to densely seeded cell areas, Medium: Colchicine 0.3, Podophyllotoxin 0.9, Etoposide 60, 4-OH—OPB 2 μM in wells, DMSO 6.8 μl
  Significance: Doubtful
[1]; b: sparsely seeded areas, High: Colchicine 1, Podophyllotoxin 3, Etoposide 200, 4-OH—OPB 6.7 μM in wells, DMSO 29.2 μl
  Significance: Possible
[1]; b: sparsely seeded areas, Low: Colchicine 0.1, Podophyllotoxin 0.3, Etoposide 20, 4-OH—OPB 0.67 μM in wells, DMSO 1.16 μl
  Significance: No
[1]; b: sparsely seeded areas, Medium: Colchicine 0.3, Podophyllotoxin 0.9, Etoposide 60, 4-OH—OPB 2 μM in wells, DMSO 6.8 μl
  Significance: No
[1]; ability of cells to leave a tumour, grow and infiltrate locally or grow in sparsely seeded areas, concluded from Exp 17
  Control of metastatic cells leaving tumour: probably not
[1]; [3]
  Clonal growth, H high density area of cell gradient, High: (+)
  Clonal growth, L low density area of cell gradient, High: (+)
[1]; [4]
  Clonal growth, H high density area of cell gradient, Low: (+
  Clonal growth, L low density area of cell gradient, Low: +
[1]; [5]
  Clonal growth, H high density area of cell gradient, Medium: (+
  Clonal growth, L low density area of cell gradient, Medium: +
[1]; preliminary results, in words
  Effect on cell cloning in soft agar: cytotoxic
[1]; single cells or very few cells spread to distant sites, concluded from Exp 17
  Control of settlement of metastatic cells: partly
[1]; supposed main advantages or disadvantages if used in cancer treatment, concluded from Exp 17
  Toxicity for body or dense cell populations: yes
[1]; supposed, if used in cancer treatment
  Tolerating long duration of treatment: no
[2]; [6]
  Effect on clonal growth at 0.03 μM: no significant inhibition
  Effect on clonal growth at 0.3 μM: inhibited significantly
[2]; Exp 16
  Concentration inhibiting clones significantly: More than 0.065 μM Podophyllotoxin inhibited clones
[2]; Exp 16, about 40000 S100T1 cells/well
  Colony inhibiting activity for dosage within a range that might be therapeutic: the same activity possibly existed
[2]; Exp 16 day 14, Podophyllotoxin No 5 (lot 12K1562, solved in DMSO 8 days beforehand, stored frozen), 0.3 μM
  Significance: probable
[2]; Exp 16 day 14, Podophyllotoxin No 5 (lot 12K1562, solved in DMSO 8 days beforehand, stored frozen), 0.3 μM in wells
  Growth: (+))
[2]; Exp 16 day 14, Podophyllotoxin No 5 (lot 12K1562, solved in DMSO 8 days beforehand, stored frozen), 3 μM in wells
  Growth: (+))
[2]; Exp 16 day 14, Podophyllotoxin No 5 (lot 12K1562, solved in DMSO 8 days beforehand, stored frozen), 3 μM, ” = as line above
  Significance: ” and probable and prob-
[2]; Exp 16 day 14, Podophyllotoxin No 6 (lot 12K1562, solved in DMSO the same day), 0.03 μM
  Significance: no
[2]; Exp 16 day 14, Podophyllotoxin No 6 (lot 12K1562, solved in DMSO the same day), 0.065 μM
  Significance: possible
[2]; Exp 16 day 14, Podophyllotoxin No 6 (lot 12K1562, solved in DMSO the same day), 0.065 μM in wells
  Growth: (+)
[2]; Exp 16 day 14, Podophyllotoxin No 7 (lot 12K1562, solved in DMSO the same day), 0.139 μM
  Significance: probable
[2]; Exp 16 day 14, Podophyllotoxin No 7 (lot 12K1562, solved in DMSO the same day), 0.139 μM in wells
  Growth: (+))
[2]; Exp 16 day 14, Podophyllotoxin No 7 (lot 12K1562, solved in DMSO the same day), 0.3 μM in wells
  Growth: (+)
[2]; Exp 16 day 14, Podophyllotoxin No 7 (lot 12K1562, solved in DMSO the same day), 0.3 μM, ” = as line above
  Significance: ” and possible
[2]; Exp 16 day 21, Podophyllotoxin No 5 (lot 12K1562, solved in DMSO 8 days beforehand, stored frozen), 0.3 μM
  Significance: doubtful
[2]; Exp 16 day 21, Podophyllotoxin No 5 (lot 12K1562, solved in DMSO 8 days beforehand, stored frozen), 0.3 μM in wells
  Growth: (+
[2]; Exp 16 day 21, Podophyllotoxin No 5 (lot 12K1562, solved in DMSO 8 days beforehand, stored frozen), 3 μM
  Significance: probable
[2]; Exp 16 day 21, Podophyllotoxin No 5 (lot 12K1562, solved in DMSO 8 days beforehand, stored frozen), 3 μM in wells
  Growth: (+))
[2]; Exp 16 day 21, Podophyllotoxin No 6 (lot 12K1562, solved in DMSO the same day), 0.03 μM
  Significance: no
[2]; Exp 16 day 21, Podophyllotoxin No 6 (lot 12K1562, solved in DMSO the same day), 0.03 μM in wells
  Growth: ++
[2]; Exp 16 day 21, Podophyllotoxin No 6 (lot 12K1562, solved in DMSO the same day), 0.065 μM
  Significance: doubtful
[2]; Exp 16 day 21, Podophyllotoxin No 6 (lot 12K1562, solved in DMSO the same day), 0.065 μM in wells
  Growth: (+
[2]; Exp 16 day 21, Podophyllotoxin No 7 (lot 12K1562, solved in DMSO the same day), 0.139 μM
  Significance: doubtful
[2]; Exp 16 day 21, Podophyllotoxin No 7 (lot 12K1562, solved in DMSO the same day), 0.139 μM in wells
  Growth: (+
[2]; Exp 16 day 21, Podophyllotoxin No 7 (lot 12K1562, solved in DMSO the same day), 0.3 μM
  Significance: possible
[2]; Exp 16 day 21, Podophyllotoxin No 7 (lot 12K1562, solved in DMSO the same day), 0.3 μM in wells
  Growth: (+)
